Measurements taken from ChEMBL document CHEMBL1131681, “Thiazolo[4,5-d]pyrimidine thiones and -ones as corticotropin-releasing hormone (CRH-R1) receptor antagonists” (Bioorg Med Chem Lett, 1999).

Biological target: T1, Corticotropin-releasing factor receptor 1 (Homo sapiens, UniProt P34998)
T1 sequence (P34998 whole entry): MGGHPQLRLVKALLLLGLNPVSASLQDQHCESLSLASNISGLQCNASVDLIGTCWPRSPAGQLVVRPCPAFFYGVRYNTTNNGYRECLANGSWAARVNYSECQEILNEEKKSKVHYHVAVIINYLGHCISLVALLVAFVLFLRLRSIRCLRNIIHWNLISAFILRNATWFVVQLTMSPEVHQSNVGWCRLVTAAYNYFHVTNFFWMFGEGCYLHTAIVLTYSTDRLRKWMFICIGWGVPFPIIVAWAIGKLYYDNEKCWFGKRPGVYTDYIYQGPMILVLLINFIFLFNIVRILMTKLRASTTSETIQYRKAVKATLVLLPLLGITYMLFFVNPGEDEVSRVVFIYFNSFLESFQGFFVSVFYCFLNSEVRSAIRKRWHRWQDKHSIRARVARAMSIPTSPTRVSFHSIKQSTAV
Test: Binding affinity against human Corticotropin releasing factor receptor 1 expressed in HEK 293E cells using [125I]TYR-oCRH
Assay type: cell-based, HEK293

SMILES | Ki
CCCN(CC1CC1)c1nc(C)nc2c1sc(=S)n2-c1c(C)cc(C)cc1C | 13.1 nM
COCCN(CCOC)c1nc(C)nc2c1sc(=O)n2-c1c(C)cc(C)cc1C | 5 nM
COCCN(CCOC)c1nc(C)nc2c1sc(=O)n2-c1ccc(C(C)C)cc1Br | 14.5 nM
CCN(CC)c1nc(C)nc2c1sc(=O)n2-c1c(C)cc(C)cc1C | 14.5 nM
CCN(CC)c1nc(C)nc2c1sc(=S)n2-c1ccc(C(C)C)cc1Br | 4.1 nM
CCC(C)N(c1nc(C)nc2c1sc(=S)n2-c1ccc(C(C)C)cc1Br)C(C)CC (stereo not given) | 45.4 nM
CCCCN(CC)c1nc(C)nc2c1sc(=S)n2-c1ccc(C(C)C)cc1Br | 23.9 nM
CCCN(CC1CC1)c1nc(C)nc2c1sc(=S)n2-c1ccc(C(C)C)cc1Br | 12.6 nM
CCCN(CC1CC1)c1nc(C)nc2c1sc(=O)n2-c1c(C)cc(C)cc1C | 16.2 nM
CCCN(CC1CC1)c1nc(C)nc2c1sc(=O)n2-c1ccc(C(C)C)cc1Br | 4.1 nM
CCN(CC)c1nc(C)nc2c1sc(=O)n2-c1ccc(C(C)C)cc1Br | 9.4 nM
Cc1nc(N2CCOCC2)c2sc(=S)n(-c3ccc(C(C)C)cc3Br)c2n1 | 122 nM
CCN(CC)c1nc(C)nc2c1sc(=S)n2-c1c(C)cc(C)cc1C | 9.2 nM
COCCN(CCOC)c1nc(C)nc2c1sc(=S)n2-c1c(C)cc(C)cc1C | 8.6 nM
COCCN(CCOC)c1nc(C)nc2c1sc(=S)n2-c1ccc(C(C)C)cc1Br | 6.6 nM
